In PMC7470090, “Identification of probe-quality degraders for Poly(ADP-ribose) polymerase-1 (PARP-1)” (Journal of Enzyme Inhibition and Medicinal Chemistry, 2020):

Each compound was assayed against T1, PARP-1 (Homo sapiens, UniProt P09874) (assay: cell-free PARP-1 inhibition assay, dose-response).
T1 construct: gene PARP1
Type: biochemical

T1 sequence (P09874 2-1014): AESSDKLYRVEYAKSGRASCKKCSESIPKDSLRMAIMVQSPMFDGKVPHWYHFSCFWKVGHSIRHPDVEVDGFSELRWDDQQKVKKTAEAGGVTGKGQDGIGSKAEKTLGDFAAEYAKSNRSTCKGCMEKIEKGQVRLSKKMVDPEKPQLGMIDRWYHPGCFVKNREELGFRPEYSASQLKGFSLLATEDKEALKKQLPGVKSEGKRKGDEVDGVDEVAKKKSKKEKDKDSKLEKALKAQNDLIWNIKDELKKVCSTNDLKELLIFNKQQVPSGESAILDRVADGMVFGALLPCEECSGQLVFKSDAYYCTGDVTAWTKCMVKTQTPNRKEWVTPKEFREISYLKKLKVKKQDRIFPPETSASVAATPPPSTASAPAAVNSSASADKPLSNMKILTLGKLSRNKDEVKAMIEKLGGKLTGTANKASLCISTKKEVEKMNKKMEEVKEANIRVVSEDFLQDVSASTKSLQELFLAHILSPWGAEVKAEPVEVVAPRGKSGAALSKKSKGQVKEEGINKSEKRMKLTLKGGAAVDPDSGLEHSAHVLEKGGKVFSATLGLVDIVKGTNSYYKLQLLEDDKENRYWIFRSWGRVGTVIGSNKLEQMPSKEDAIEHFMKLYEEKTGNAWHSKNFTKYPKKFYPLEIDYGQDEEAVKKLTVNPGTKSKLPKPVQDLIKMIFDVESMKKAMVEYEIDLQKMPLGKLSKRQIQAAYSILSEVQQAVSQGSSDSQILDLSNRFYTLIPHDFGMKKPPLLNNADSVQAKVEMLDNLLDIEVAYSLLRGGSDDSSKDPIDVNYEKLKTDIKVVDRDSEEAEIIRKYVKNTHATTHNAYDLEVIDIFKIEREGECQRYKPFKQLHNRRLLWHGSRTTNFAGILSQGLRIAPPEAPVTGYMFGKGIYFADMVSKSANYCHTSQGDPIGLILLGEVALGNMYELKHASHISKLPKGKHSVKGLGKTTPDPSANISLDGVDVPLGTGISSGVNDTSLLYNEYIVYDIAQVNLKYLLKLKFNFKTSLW

IC50 [µM]	Compound
0.0713	O=C1CCC(N2Cc3c(NC(=O)CCCCCCCNC(=O)c4cc(Cc5n[nH]c(=O)c6ccccc56)ccc4F)cccc3C2=O)C(=O)N1 (stereo not drawn) [compound 1, N-(8-((2–(2,6-dioxopiperidin-3-yl)-1-oxoisoindolin-4-yl)amino)-8-oxooctyl)-2-fluoro-5-((4-oxo-3,4-dihydrophthalazin-1-yl)methyl)benzamide]
0.0547	O=C1CCC(N2Cc3c(NC(=O)CCCCCCCCCCNC(=O)c4cc(Cc5n[nH]c(=O)c6ccccc56)ccc4F)cccc3C2=O)C(=O)N1 (stereo not drawn) [compound 2, N-(11-((2–(2,6-dioxopiperidin-3-yl)-1-oxoisoindolin-4-yl)amino)-11-oxoundecyl)-2-fluoro-5-((4-oxo-3,4-dihydrophthalazin-1-yl)methyl)benzamide]
0.0207	O=C1CCC(N2Cc3c(NC(=O)CCCCCCCCCCCNC(=O)c4cc(Cc5n[nH]c(=O)c6ccccc56)ccc4F)cccc3C2=O)C(=O)N1 (stereo not drawn) [compound 3, N-(12-((2–(2,6-dioxopiperidin-3-yl)-1-oxoisoindolin-4-yl)amino)-12-oxododecyl)-2-fluoro-5-((4-oxo-3,4-dihydrophthalazin-1-yl)methyl)benzamide]
